# From US6051683A, “Immune regulating peptides and method of obtaining them” (Immunotech Developments Inc., priority 1995, dated 2000)
# Peptide text beside a SMILES is read from it.
# Experiments:
# [1] = tested on: lymphocytes of the guinea pigs; test: E-yield (E-POK) of guinea pig lymphocytes after processing with trypsin; format: cell-based; details: untreated animals 66.5, treated with trypsin 36.1
# Procedure: Biological activity of the new peptide was studied on guinea pigs using recognised testing methods of E-yield of lymphocytes of the guinea pigs subsequent to processing with trypsin.
# *Each concentration was tested on 5 animals. The positive growth differs
# in relation to the control group EPOK is 50% or higher.
# [2] = Solubility of the peptide; format: physicochemical
# From the text: The peptide obtained by the above formula has the texture of a white powder, which is soluble in water, not completely soluble in alcohol and non soluble on chloroform.
# Solubility--Soluble in water, non soluble in chloroform.
compound,measurement,setting,value
"CC[C@H](C)[C@H](N)C(=O)N[C@@H](CCC(=O)O)C(=O)N[C@@H](Cc1c[nH]c2ccccc12)C(=O)O [Ile-Glu-Trp, H-Ile-Glu-Trp-OH] (H-Ile-Glu-Trp-OH)","QUANTITY E-POK, (%) after treatment with trypsin and compound",[1]; compound concentration 10^-6 mg/ml,61.4%
same,"QUANTITY E-POK, (%) after treatment with trypsin and compound",[1]; compound concentration 10^-7 mg/ml,63.9%
same,"QUANTITY E-POK, (%) after treatment with trypsin and compound",[1]; compound concentration 10^-8 mg/ml,64.8%
same,"QUANTITY E-POK, (%) after treatment with trypsin and compound",[1]; compound concentration 10^-9 mg/ml,60.2%
same,"QUANTITY E-POK, (%) after treatment with trypsin and compound",[1]; compound concentration 10^-10 mg/ml,37.5%
same,"QUANTITY E-POK, (%) after treatment with trypsin and compound",[1]; compound concentration 10^-11 mg/ml,40.0%
same,"QUANTITY E-POK, (%) after treatment with trypsin and compound",[1]; compound concentration 10^-12 mg/ml,34.3%
same,Solubility in chloroform,[2]; chloroform,non soluble
same,Solubility in water,[2]; water,Soluble
